Data on one molecule can be found in PMC12586182 (Frontiers in Oncology, 2025).

Entries after “also recorded” stand apart in the source; their conditions may differ. Some results are limits rather than exact numbers.

One assay deals with AsPC-1. The experiment in a line: Cell viability assay (ATPlite). It is filed as cell-based. Particulars: Homo sapiens, ASPC1; AsPC-1 cell line, 72 hours incubation. In outline: (§1)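 Cells grew 24 h, then received 9-point √10-fold compound series in duplicate (0.4% DMSO final) for 72 h. ATP content was read by ATPlite luminescence and normalized to vehicle controls as % viability. IC50 came from a four-parameter logistic fit; curves with F-value above 1.5 were invalidated, with IC50 then set at the top concentration.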

In a further assay the test system is DoTc2 4510. The experiment in a line: Cell viability assay (ATPlite). It is filed as cell-based. Particulars: Homo sapiens; DoTc2 4510 cell line, 72 hours incubation. In outline: as §1
The subject of the next assay is HCT 15. Briefly: Cell viability assay (ATPlite). It is filed as cell-based. The settings on record: Homo sapiens; HCT 15 cell line, 72 hours incubation. Put shortly: as §1
The next assay relates to LC-2/ad. Briefly: Cell viability assay (ATPlite). It is filed as cell-based. The settings on record: Homo sapiens; LC-2/ad cell line, 72 hours incubation. Put shortly: as §1
Another assay has as its system PFSK-1. The experiment in a line: Cell viability assay (ATPlite). It counts as cell-based. Particulars: Homo sapiens; PFSK-1 cell line, 72 hours incubation. In outline: as §1
Another assay concerns RPMI-7951. The experiment in a line: Cell viability assay (ATPlite). It is filed as cell-based. Particulars: Homo sapiens; RPMI-7951 cell line, 72 hours incubation. In outline:
as §1

In assay [1] the test system is panel of 160 human cancer cell lines. The experiment in a line: Cancer cell panel profiling in cell viability assays (ATPlite). It is filed as cell-based. The source says: A panel of 160 cancer cell lines was used in this study. […]. Cell lines were purchased from the American Type Culture Collection (ATCC) (Manassas, VA, USA), the German Collection of Microorganisms and Cell Cultures (DSMZ) (Braunschweig, Germany), the RIKEN BioResource Research Center (Tsukuba, Ibaraki, Japan) or the Japanese Collection of Research Bioresources (JCRB) (Ibaraki City, Osaka, Japan). All cell lines were propagated in the cell culture media as indicated in Supplementary Table S1 . Cell viability assays were carried out within ten passages of the original vials. The authenticity of the ATCC and DSMZ cell lines has been confirmed by short tandem repeat analysis at both institutions. […]
Intracellular ATP content was used as an indirect readout of cell number using the ATPlite 1Step bioluminescence assay (Revvity, Groningen, the Netherlands). […] After 24 hours of incubation, the starting cell number was determined by adding ATPlite to each well of a control plate and recording luminescence on an Envision multimode reader (Revvity, Waltham, MA, USA) ([4]). […] After incubation for an additional 72 hours, the ATP content was measured in each well using ATPlite. […] Cell doublings were determined by relating the cell number of vehicle-treated controls to the starting cell number for each cell line. […]

Assay [2] addresses biotinylated, inactive MEK1 (Homo sapiens, UniProt Q02750). The experiment in a line: biochemical.
The next assay has as its target activated B-RAF (Homo sapiens, UniProt P15056). Briefly: biochemical.
Assay [3] addresses T1, SIK3 (Homo sapiens, UniProt Q9Y2K2). The experiment in a line: Competition binding assay (Eurofins DiscoverX).
The target of assay [4] is T1, SIK3. Briefly: Kinase enzyme activity assay at 1 mmol/L ATP (Carna).
A further assay concerns the target MLK1 (Homo sapiens, UniProt P80192). Briefly: Radiometric kinase assay with 32P-labeled ATP (Eurofins).
The next assay deals with B-RAF (Homo sapiens, UniProt P15056). Briefly: Radiometric kinase assay with 32P-labeled ATP (Eurofins), cascade assay.

T1 sequence (Q9Y2K2 whole entry): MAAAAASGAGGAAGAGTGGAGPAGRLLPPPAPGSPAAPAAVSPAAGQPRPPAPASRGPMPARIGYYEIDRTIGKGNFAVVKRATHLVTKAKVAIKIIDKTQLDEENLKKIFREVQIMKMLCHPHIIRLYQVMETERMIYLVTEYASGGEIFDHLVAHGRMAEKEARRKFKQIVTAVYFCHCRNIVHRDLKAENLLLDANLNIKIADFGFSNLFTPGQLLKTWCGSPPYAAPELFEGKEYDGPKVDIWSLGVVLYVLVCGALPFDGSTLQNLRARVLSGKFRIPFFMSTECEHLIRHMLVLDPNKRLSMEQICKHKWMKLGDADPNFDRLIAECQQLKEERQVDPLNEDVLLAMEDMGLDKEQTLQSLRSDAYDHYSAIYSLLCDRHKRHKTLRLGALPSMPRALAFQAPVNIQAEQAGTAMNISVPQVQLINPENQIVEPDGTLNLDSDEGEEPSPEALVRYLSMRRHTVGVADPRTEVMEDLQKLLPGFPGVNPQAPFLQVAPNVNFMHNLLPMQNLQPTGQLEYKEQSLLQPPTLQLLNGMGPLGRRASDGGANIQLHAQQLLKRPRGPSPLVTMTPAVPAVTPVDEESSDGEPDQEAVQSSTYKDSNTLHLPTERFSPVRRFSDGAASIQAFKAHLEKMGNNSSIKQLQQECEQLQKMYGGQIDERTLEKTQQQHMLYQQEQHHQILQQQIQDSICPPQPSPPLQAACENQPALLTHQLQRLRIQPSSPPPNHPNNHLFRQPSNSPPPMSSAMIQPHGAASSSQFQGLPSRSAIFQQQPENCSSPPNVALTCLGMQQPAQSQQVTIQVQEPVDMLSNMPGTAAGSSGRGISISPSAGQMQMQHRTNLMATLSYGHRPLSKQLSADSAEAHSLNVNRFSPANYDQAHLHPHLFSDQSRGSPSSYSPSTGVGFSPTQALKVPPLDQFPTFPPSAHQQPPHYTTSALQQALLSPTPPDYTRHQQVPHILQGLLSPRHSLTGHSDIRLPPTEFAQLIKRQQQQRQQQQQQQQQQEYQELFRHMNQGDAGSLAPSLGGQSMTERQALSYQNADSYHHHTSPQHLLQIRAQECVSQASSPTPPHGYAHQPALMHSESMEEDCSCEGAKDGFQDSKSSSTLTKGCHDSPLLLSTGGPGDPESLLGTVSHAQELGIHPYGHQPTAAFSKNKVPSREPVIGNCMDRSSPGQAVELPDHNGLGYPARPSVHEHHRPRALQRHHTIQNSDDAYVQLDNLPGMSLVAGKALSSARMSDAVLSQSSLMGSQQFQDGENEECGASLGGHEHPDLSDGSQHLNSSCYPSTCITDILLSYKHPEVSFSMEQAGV
MLK1, sequence (P80192 whole entry): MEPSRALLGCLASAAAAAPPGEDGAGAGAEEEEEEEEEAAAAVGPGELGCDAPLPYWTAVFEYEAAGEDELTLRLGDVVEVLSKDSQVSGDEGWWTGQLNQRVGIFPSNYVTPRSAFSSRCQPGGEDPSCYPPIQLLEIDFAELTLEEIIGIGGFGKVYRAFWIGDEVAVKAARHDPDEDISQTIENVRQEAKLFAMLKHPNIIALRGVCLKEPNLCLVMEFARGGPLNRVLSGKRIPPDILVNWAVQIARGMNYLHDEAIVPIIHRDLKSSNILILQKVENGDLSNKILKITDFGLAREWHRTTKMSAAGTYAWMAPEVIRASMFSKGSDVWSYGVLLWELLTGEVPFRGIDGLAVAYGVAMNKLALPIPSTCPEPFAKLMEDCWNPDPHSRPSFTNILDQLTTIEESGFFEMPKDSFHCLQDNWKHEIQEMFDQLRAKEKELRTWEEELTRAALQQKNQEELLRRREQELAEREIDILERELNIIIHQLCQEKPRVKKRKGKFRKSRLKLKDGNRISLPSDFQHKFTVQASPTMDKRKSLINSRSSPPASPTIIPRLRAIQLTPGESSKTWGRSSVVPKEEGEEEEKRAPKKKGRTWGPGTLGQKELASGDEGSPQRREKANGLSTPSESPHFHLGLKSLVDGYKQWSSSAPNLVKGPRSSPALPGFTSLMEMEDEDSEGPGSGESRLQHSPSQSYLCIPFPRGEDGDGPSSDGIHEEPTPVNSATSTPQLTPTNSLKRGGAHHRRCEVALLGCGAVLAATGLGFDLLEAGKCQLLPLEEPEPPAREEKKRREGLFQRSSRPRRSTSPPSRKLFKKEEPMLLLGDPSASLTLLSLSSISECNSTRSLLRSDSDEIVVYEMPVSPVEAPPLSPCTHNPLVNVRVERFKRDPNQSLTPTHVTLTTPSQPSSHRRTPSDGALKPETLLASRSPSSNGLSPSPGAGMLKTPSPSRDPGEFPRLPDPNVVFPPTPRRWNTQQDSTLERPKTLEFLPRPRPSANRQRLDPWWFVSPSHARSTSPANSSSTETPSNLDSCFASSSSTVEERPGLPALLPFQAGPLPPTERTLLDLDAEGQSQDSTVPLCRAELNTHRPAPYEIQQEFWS
activated B-RAF, sequence (P15056 whole entry): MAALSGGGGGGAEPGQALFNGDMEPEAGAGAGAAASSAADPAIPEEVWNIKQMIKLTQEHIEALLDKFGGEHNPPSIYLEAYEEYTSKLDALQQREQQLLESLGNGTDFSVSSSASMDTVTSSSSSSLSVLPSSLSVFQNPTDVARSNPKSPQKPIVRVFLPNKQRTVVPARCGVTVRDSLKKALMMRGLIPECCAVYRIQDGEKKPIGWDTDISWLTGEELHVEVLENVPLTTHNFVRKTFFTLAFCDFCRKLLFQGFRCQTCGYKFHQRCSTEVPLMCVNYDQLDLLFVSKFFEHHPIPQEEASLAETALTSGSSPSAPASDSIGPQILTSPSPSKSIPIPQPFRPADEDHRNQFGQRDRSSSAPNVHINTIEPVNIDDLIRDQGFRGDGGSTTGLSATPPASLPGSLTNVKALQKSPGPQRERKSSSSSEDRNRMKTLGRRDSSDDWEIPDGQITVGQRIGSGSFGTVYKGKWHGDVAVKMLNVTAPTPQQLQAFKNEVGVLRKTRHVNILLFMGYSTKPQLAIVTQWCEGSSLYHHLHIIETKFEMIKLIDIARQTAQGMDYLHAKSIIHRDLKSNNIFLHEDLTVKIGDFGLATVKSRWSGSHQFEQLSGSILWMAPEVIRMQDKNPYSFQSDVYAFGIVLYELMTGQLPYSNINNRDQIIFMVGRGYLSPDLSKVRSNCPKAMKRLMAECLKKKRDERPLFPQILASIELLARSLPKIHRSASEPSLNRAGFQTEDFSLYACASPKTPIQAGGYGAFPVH
biotinylated, inactive MEK1, sequence (Q02750 whole entry): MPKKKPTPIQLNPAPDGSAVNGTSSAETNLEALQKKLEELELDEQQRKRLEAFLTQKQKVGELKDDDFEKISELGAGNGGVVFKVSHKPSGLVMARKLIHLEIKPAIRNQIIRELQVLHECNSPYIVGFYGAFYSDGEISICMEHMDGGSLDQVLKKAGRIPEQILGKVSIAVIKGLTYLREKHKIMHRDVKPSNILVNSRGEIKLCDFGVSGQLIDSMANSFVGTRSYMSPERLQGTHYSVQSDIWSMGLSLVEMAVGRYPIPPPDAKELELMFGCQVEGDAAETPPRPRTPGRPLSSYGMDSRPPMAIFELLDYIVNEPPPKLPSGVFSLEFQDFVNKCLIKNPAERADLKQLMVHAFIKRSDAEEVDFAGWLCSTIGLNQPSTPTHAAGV

As to `O=C(c1ccc(Oc2ccccc2)cc1Cl)c1c[nH]c2ncnc(N[C@@H]3CC[C@@H](CO)OC3)c12` [nemtabrutinib], the IC50 was found to be 3.83 µM with AsPC-1; 1410 nM with DoTc2 4510; 5.78 µM with HCT 15; 1260 nM in the assay on LC-2/ad; 11.3 µM in the assay with PFSK-1; 2220 nM in the assay on RPMI-7951. Besides, the IC50 is > 10 µM at SIK3 [3], 9.32 µM at SIK3 [4], 4.87 µM against MLK1 and 73 nM at B-RAF. Also, the “Extent of inhibition of viability” value in assay [1] (SU-DHL-6 and REC-1 cells, dose-response curves) was “almost complete inhibition of viability”. Also, the “Sensitivity of BRAF-mutant versus BRAF wild-type cell lines” value in assay [1] (average over cell panel, ANOVA) is recorded as “three times higher; also recorded: three times more sensitive”. Moreover, the Kd is 10 nM in assay [2] and 1200 nM on activated B-RAF. In addition, the “Binding to SIK3” value at SIK3 [3] (competition binding assay) is on record as “No binding”. Further, the “Inhibition of MLK1” value at MLK1 is on record as “did not inhibit”.
